Test results: patent publication US8710065B2, “Tricyclic inhibitors of kinases” (AbbVie Inc., priority 2011, dated 2014)

These compounds were tested against T1, GST-tagged-Wee1 kinase (Homo sapiens, UniProt P30291) (assay: Wee1 time-resolved fluorescence equilibrium binding assay (displacement of Oregon Green-labeled ATP-competitive kinase probe)). Details: read-out: Wee-1 inhibition (Ki).
T1 construct: purchased Carnabio (Carna Biosciences) 05-177
Procedure, shortened: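 Ki values derive from competitive displacement, under equilibrium, of a fast-reversible ATP-site Oregon Green kinase probe from GST-tagged Wee1, detected by time-resolved fluorescence.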

T1 sequence (P30291 whole entry): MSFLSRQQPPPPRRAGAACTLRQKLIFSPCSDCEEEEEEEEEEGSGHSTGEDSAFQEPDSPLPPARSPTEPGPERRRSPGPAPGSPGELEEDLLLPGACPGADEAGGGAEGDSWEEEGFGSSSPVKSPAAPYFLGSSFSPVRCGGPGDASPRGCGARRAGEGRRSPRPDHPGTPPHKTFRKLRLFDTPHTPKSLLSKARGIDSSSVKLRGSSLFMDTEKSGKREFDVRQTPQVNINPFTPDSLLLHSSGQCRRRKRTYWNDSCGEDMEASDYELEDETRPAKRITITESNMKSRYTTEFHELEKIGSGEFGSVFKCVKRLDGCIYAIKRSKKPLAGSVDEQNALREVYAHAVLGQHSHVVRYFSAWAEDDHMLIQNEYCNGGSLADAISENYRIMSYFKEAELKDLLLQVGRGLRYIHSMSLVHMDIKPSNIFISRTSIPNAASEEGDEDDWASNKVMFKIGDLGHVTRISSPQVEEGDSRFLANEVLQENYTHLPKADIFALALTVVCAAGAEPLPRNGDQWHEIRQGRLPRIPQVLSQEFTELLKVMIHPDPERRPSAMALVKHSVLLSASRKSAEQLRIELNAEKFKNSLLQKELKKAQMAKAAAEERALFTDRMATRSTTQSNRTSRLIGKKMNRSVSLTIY

Ki, < 10 nM:
CC1(C)CN(S(C)(=O)=O)Cc2cc(Nc3ncc4c(=O)n(-c5c(Cl)cccc5Cl)c5nccn5c4n3)ccc21 [Example 319, 6-(2,6-dichlorophenyl)-2-{[4,4-dimethyl-2-(methylsulfonyl)-1,2,3,4-tetrahydroisoquinolin-7-yl]amino}imidazo[1,2-a]pyrimido[5,4-e]pyrimidin-5(6H)-one]
CCS(=O)(=O)N1Cc2cc(Nc3ncc4c(=O)n(-c5c(Cl)cccc5Cl)c5nccn5c4n3)ccc2C(C)(C)C1 [Example 320, 6-(2,6-dichlorophenyl)-2-{[2-(ethylsulfonyl)-4,4-dimethyl-1,2,3,4-tetrahydroisoquinolin-7-yl]amino}imidazo[1,2-a]pyrimido[5,4-e]pyrimidin-5(6H)-one]
CC(=O)N1CCC(Nc2ccc(Nc3ncc4c(=O)n(-c5c(Cl)cccc5Cl)c5nccn5c4n3)cc2)CC1 [Example 321, 2-({4-[(1-acetylpiperidin-4-yl)amino]phenyl}amino)-6-(2,6-dichlorophenyl)imidazo[1,2-a]pyrimido[5,4-e]pyrimidin-5(6H)-one]
CS(=O)(=O)N1CCC(Nc2ccc(Nc3ncc4c(=O)n(-c5c(Cl)cccc5Cl)c5nccn5c4n3)cc2)CC1 [Example 322, 6-(2,6-dichlorophenyl)-2-[(4-{[1-(methylsulfonyl)piperidin-4-yl]amino}phenyl)amino]imidazo[1,2-a]pyrimido[5,4-e]pyrimidin-5(6H)-one]
CN1CCC2(CC1)CCN(c1ccc(Nc3ncc4c(=O)n(-c5c(Cl)cccc5Cl)c5nccn5c4n3)cc1)CC2 [Example 323, 6-(2,6-dichlorophenyl)-2-{[4-(9-methyl-3,9-diazaspiro[5.5]undec-3-yl)phenyl]amino}imidazo[1,2-a]pyrimido[5,4-e]pyrimidin-5(6H)-one]
CS(=O)(=O)N1CCC2(CN(c3ccc(Nc4ncc5c(=O)n(-c6c(Cl)cccc6Cl)c6nccn6c5n4)cc3)C2)C1 [Example 324, 6-(2,6-dichlorophenyl)-2-({4-[6-(methylsulfonyl)-2,6-diazaspiro[3.4]oct-2-yl]phenyl}amino)imidazo[1,2-a]pyrimido[5,4-e]pyrimidin-5(6H)-one]
O=c1c2cnc(Nc3ccc(N4CCN5CCC[C@H]5C4)cc3)nc2n2ccnc2n1-c1ccccc1Cl [Example 325, 6-(2-chlorophenyl)-2-({4-[(8aS)-hexahydropyrrolo[1,2-a]pyrazin-2(1H)-yl]phenyl}amino)imidazo[1,2-a]pyrimido[5,4-e]pyrimidin-5(6H)-one]
CN1C[C@H]2CCN(c3ccc(Nc4ncc5c(=O)n(-c6c(Cl)cccc6Cl)c6nccn6c5n4)cc3)[C@H]2C1 [Example 326, 6-(2,6-dichlorophenyl)-2-({4-[(3aR,6aR)-5-methylhexahydropyrrolo[3,4-b]pyrrol-1(2H)-yl]phenyl}amino)imidazo[1,2-a]pyrimido[5,4-e]pyrimidin-5(6H)-one]
CCN(CCN(C)C)c1ccc(Nc2ncc3c(=O)n(-c4c(Cl)cccc4Cl)c4nccn4c3n2)cc1 [Example 327, 6-(2,6-dichlorophenyl)-2-[(4-{[2-(dimethylamino)ethyl](ethyl)amino}phenyl)amino]imidazo[1,2-a]pyrimido[5,4-e]pyrimidin-5(6H)-one]
CC(C)NCCN(c1ccc(Nc2ncc3c(=O)n(-c4c(Cl)cccc4Cl)c4nccn4c3n2)cc1)C(C)C [Example 328, 6-(2,6-dichlorophenyl)-2-[(4-{propan-2-yl[2-(propan-2-ylamino)ethyl]amino}phenyl)amino]imidazo[1,2-a]pyrimido[5,4-e]pyrimidin-5(6H)-one]
CC(=O)N1CCc2ccc(Nc3ncc4c(=O)n(-c5c(Cl)cccc5Cl)c5nccn5c4n3)cc2C1 [Example 329, 2-[(2-acetyl-1,2,3,4-tetrahydroisoquinolin-7-yl)amino]-6-(2,6-dichlorophenyl)imidazo[1,2-a]pyrimido[5,4-e]pyrimidin-5(6H)-one]
